# Experimental data from US9655902B2, “Guanidine derivatives for the treatment of hepatitis C” (priority 2013, dated 2017).
# Read-outs that look alike come from different tables or passages of the source.
# System: HCV pseudoparticles (genotype 1a HCV E1 and E2 envelope, H77C isolate)
# Assay: HCV pseudoparticle infection assay (luciferase reporter, Huh7 cells)
# Type: cell-based, HCV genotype 1a
# Conditions: Hepatitis C virus, Huh-7, 48 h, read-out: EC50 (1a, nM), genotype 1a HCV pseudoparticles, Huh7 cells, luciferase 2 days after infection
SMILES,EC50 (class symbol) [nM],EC50 (numeric value) [nM]
N=C(N)N1CCCN(C(=O)c2ccc(Nc3nc(NCc4ccc(Cl)cc4)nc(OCc4ccccc4)n3)cc2)CC1 [Compound 1017],10 to 1000,
"NC(=O)/N=C(\NC1CCCC1)N1CCN(C(=O)c2ccc(Nc3nc(NC4(c5ccc(Cl)cc5)CC4)nc(OCC(F)(F)F)n3)cc2)CC1 [Compound 1008, N′-carbamoyl-4-(4-(4-(1-(4-chlorophenyl)cyclopropylamino)-6-(2,2,2-trifluoroethoxy)-1,3,5-triazin-2-ylamino)benzoyl)-N-cyclopentylpiperazine-1-carboximidamide]",0.01 to 10,
N=C(N)NNC(=O)c1ccc(Nc2nc(NCc3ccc(Cl)cc3)nc(OCc3ccccc3)n2)cc1 [Compound 1020],10 to 1000,175
"N=C(N)NCCC[C@H](NC(=O)c1ccc(Nc2nc(NC3(c4ccc(Cl)cc4)CC3)nc(OCC(F)(F)F)n2)cc1)C(N)=O [Compound 1016, (S)—N-(1-amino-5-guanidino-1-oxopentan-2-yl)-4-(4-(1-(4-chlorophenyl)cyclopropylamino)-6-(2,2,2-trifluoroethoxy)-1,3,5-triazin-2-ylamino)benzamide]",0.01 to 10,0.352
N=C(N)NS(=O)(=O)c1ccc(NC(=O)c2ccc(Nc3nc(NCc4ccc(Cl)cc4)nc(OCc4ccccc4)n3)cc2)cc1 [Compound 1022],10 to 1000,62.5
"N#C/N=C(\NC1CCCC1)N1CCN(C(=O)c2ccc(Nc3nc(NC4(c5ccc(Cl)cc5)CC4)nc(OCC(F)(F)F)n3)cc2)CC1 [Compound 1009, 4-(4-(4-(1-(4-chlorophenyl)cyclopropylamino)-6-(2,2,2-trifluoroethoxy)-1,3,5-triazin-2-ylamino)benzoyl)-N′-cyano-N-cyclopentylpiperazine-1-carboximidamide]",0.01 to 10,3.57
"N=C(N)N1CCCN(C(=O)c2ccc(Nc3nc(NCc4ccc(Cl)cc4)nc(OCC(F)(F)F)n3)cc2)CC1 [Compound 1004, 4-(4-(4-(4-chlorobenzylamino)-6-(2,2,2-trifluoroethoxy)-1,3,5-triazin-2-ylamino)benzoyl)-1,4-diazepane-1-carboximidamide]",10 to 1000,
"N=C(N)NCCC[C@H](NC(=O)c1ccc(Nc2nc(NCc3ccc(Cl)cc3)nc(OCC(F)(F)F)n2)cc1)C(=O)O [Compound 1007, (S)-2-(4-(4-(4-chlorobenzylamino)-6-(2,2,2-trifluoroethoxy)-1,3,5-triazin-2-ylamino)benzamido)-5-guanidinopentanoic acid]",10 to 1000,
[2H]C([2H])(Oc1nc(Nc2ccc(C(=O)N[C@@H](CCCNC(=N)N)C(=O)NCC(N)=O)cc2)nc(NC2(c3ccc(Cl)cc3)CC2)n1)C(F)(F)F [Compound 1030],0.01 to 10,
"N=C(N)NCCCCNC(=O)c1ccc(Nc2nc(NCc3ccc(Cl)cc3)nc(OCC(F)(F)F)n2)cc1 [Compound 1005, 4-(4-(4-chlorobenzylamino)-6-(2,2,2-trifluoroethoxy)-1,3,5-triazin-2-ylamino)-N-(4-guanidinobutyl)benzamide]",10 to 1000,29.5
[2H]C([2H])(Oc1nc(Nc2ccc(C(=O)N[C@H](CCCNC(=N)N)C(=O)N[C@@H](Cc3ccccc3)C(=O)O)cc2)nc(NC2(c3ccc(Cl)cc3)CC2)n1)C(F)(F)F [Compound 1029],0.01 to 10,
"N=C(N)NCCC[C@@H](NC(=O)c1ccc(Nc2nc(NC3(c4ccc(Cl)cc4)CC3)nc(OCC(F)(F)F)n2)cc1)C(=O)O [Compound 1002, (R)-2-(4-(4-(1-(4-chlorophenyl)cyclopropylamino)-6-(2,2,2-trifluoroethoxy)-1,3,5-triazin-2-ylamino)benzamido)-5-guanidinopentanoic acid]",0.01 to 10,
N=C(N)NCCCCNC(=O)c1ccc(Nc2nc(NCc3ccc(Cl)cc3)nc(OCc3ccccc3)n2)cc1 [Compound 1024],10 to 1000,
[2H]C([2H])(Oc1nc(Nc2ccc(C(=O)N[C@@H](CCCNC(=N)N)C(N)=O)cc2)nc(NC2(c3ccc(Cl)cc3)CC2)n1)C(F)(F)F [Compound 1028],0.01 to 10,
"NC(=O)/N=C(\N1CCC1)N1CCN(C(=O)c2ccc(Nc3nc(NC4(c5ccc(Cl)cc5)CC4)nc(OCC(F)(F)F)n3)cc2)CC1 [Compound 1010, 1-(azetidin-1-yl(4-(4-(4-(1-(4-chlorophenyl)cyclopropylamino)-6-(2,2,2-trifluoroethoxy)-1,3,5-triazin-2-ylamino)benzoyl)piperazin-1-yl)methylene)urea]",0.01 to 10,
"N=C1NCCN1C(=O)c1ccc(Nc2nc(NC3(c4ccc(Cl)cc4)CC3)nc(OCC(F)(F)F)n2)cc1 [Compound 1014, (4-(4-(1-(4-chlorophenyl)cyclopropylamino)-6-(2,2,2-trifluoroethoxy)-1,3,5-triazin-2-ylamino)phenyl)(2-iminoimidazolidin-1-yl)methanone]",0.01 to 10,3.01

SMILES,EC50 (class symbol) [nM],EC50 (numeric value) [nM]
"N=C(N)N1CCCN(C(=O)c2ccc(Nc3nc(NC4(c5ccc(Cl)cc5)CC4)nc(OCC(F)(F)F)n3)cc2)CC1 [Compound 1001, 4-(4-(4-(1-(4-chlorophenyl)cyclopropylamino)-6-(2,2,2-trifluoroethoxy)-1,3,5-triazin-2-ylamino)benzoyl)-1,4-diazepane-1-carboximidamide]",0.01 to 10,
"N#C/N=C(\N1CCC1)N1CCN(C(=O)c2ccc(Nc3nc(NC4(c5ccc(Cl)cc5)CC4)nc(OCC(F)(F)F)n3)cc2)CC1 [Compound 1011, N-(azetidin-1-yl(4-(4-(4-(1-(4-chlorophenyl)cyclopropylamino)-6-(2,2,2-trifluoroethoxy)-1,3,5-triazin-2-ylamino)benzoyl)piperazin-1-yl)methylene)cyanamide]",0.01 to 10,
N=C(N)NCCC[C@H](NC(=O)c1ccc(Nc2nc(NCc3ccc(Cl)cc3)nc(OCc3ccccc3)n2)cc1)C(=O)N[C@@H](CCC(N)=O)C(=O)O [Compound 1019],10 to 1000,
"N=C(N)NCCC[C@H](NC(=O)c1ccc(Nc2nc(NC3(c4ccc(Cl)cc4)CC3)nc(OCC(F)(F)F)n2)cc1)C(=O)O [Compound 1003, (S)-2-(4-(4-(1-(4-chlorophenyl)cyclopropylamino)-6-(2,2,2-trifluoroethoxy)-1,3,5-triazin-2-ylamino)benzamido)-5-guanidinopentanoic acid]",0.01 to 10,0.711
"N=C(N)NC[C@H](NC(=O)c1ccc(Nc2nc(NC3(c4ccc(Cl)cc4)CC3)nc(OCC(F)(F)F)n2)cc1)C(=O)O [Compound 1015, (S)-2-(4-(4-(1-(4-chlorophenyl)cyclopropylamino)-6-(2,2,2-trifluoroethoxy)-1,3,5-triazin-2-ylamino)benzamido)-3-guanidinopropanoic acid]",0.01 to 10,
"N#C/N=C(\N1CCCCC1)N1CCN(C(=O)c2ccc(Nc3nc(NC4(c5ccc(Cl)cc5)CC4)nc(OCC(F)(F)F)n3)cc2)CC1 [Compound 1013, N-((4-(4-(4-(1-(4-chlorophenyl)cyclopropylamino)-6-(2,2,2-trifluoroethoxy)-1,3,5-triazin-2-ylamino)benzoyl)piperazin-1-yl)(piperidin-1-yl)methylene)cyanamide]",0.01 to 10,
"NC(=O)/N=C(\N1CCCCC1)N1CCN(C(=O)c2ccc(Nc3nc(NC4(c5ccc(Cl)cc5)CC4)nc(OCC(F)(F)F)n3)cc2)CC1 [Compound 1012, 1-((4-(4-(4-(1-(4-chlorophenyl)cyclopropylamino)-6-(2,2,2-trifluoroethoxy)-1,3,5-triazin-2-ylamino)benzoyl)piperazin-1-yl)(piperidin-1-yl)methylene)urea]",0.01 to 10,
N=C(N)NS(=O)(=O)c1ccc(NC(=O)c2cccc(Nc3nc(NCc4ccc(Cl)cc4)nc(OCc4ccccc4)n3)c2)cc1 [Compound 1023],10 to 1000,
N=C(N)NCCCCNC(=O)c1cccc(Nc2nc(NCc3ccc(Cl)cc3)nc(OCc3ccccc3)n2)c1 [Compound 1025],> 1000,4480
N=C(N)N1CCN(C(=O)c2cccc(Nc3nc(NCc4ccc(Cl)cc4)nc(OCc4ccccc4)n3)c2)CC1 [Compound 1027],10 to 1000,
N=C(N)NNC(=O)c1cccc(Nc2nc(NCc3ccc(Cl)cc3)nc(OCc3ccccc3)n2)c1 [Compound 1021],> 1000,
"N=C(N)NCCC[C@@H](NC(=O)c1ccc(Nc2nc(NCc3ccc(Cl)cc3)nc(OCC(F)(F)F)n2)cc1)C(=O)O [Compound 1006, (R)-2-(4-(4-(4-chlorobenzylamino)-6-(2,2,2-trifluoroethoxy)-1,3,5-triazin-2-ylamino)benzamido)-5-guanidinopentanoic acid]",10 to 1000,
[2H]C([2H])(Oc1nc(Nc2ccc(C(=O)N[C@@H](CCCNC(=N)N)C(=O)N[C@@H](CC(N)=O)C(N)=O)cc2)nc(NC2(c3ccc(Cl)cc3)CC2)n1)C(F)(F)F [Compound 1031],0.01 to 10,
N=C(N)N1CCN(C(=O)c2ccc(Nc3nc(NCc4ccc(Cl)cc4)nc(OCc4ccccc4)n3)cc2)CC1 [Compound 1026],10 to 1000,
N=C(N)N1CCCN(C(=O)c2cccc(Nc3nc(NCc4ccc(Cl)cc4)nc(OCc4ccccc4)n3)c2)CC1 [Compound 1018],10 to 1000,
